Data: patent US11214803B2, “Modulators of YAP1 expression” (Ionis Pharmaceuticals, Inc., priority 2019, dated 2022)
Strand notation (5' to 3'): a small letter for the sugar, then the base; units joined by * are phosphorothioate-linked, units joined directly phosphodiester-linked; [ ] holds rarer units or linkages, { } end groups; capitals alone tell only the bases. e = 2'-O-(2-methoxyethyl) (MOE); k = constrained ethyl (cEt); [5mC] = 5-methylcytosine; d = 2'-deoxy (DNA); m = 2'-O-methyl

Tested on: Yap1 mRNA
Experiment: Antisense inhibition of human Yap1 in SNU-449 cells by modified oligonucleotides, single dose (Example 5, RTS36584)
Type: cell-based
Outline: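 Each modified oligonucleotide is applied by free uptake to SNU-449 cultures at 2,000 nM, and total RNA is harvested around 48 h later. Yap1 transcript, quantified with the RTS36584 set and corrected for RIBOGREEN RNA content, is given as % UTC. Asterisks mark sequences overlapping the amplicon.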

[1] = Table 39, SNU-449 cells, 10,000 cells per well, free uptake, 2,000 nM oligonucleotide, approx. 48 hours, RTS36584, normalized to RIBOGREEN, Yap1 mRNA relative to untreated control
[2] = Table 46, Yap1 mRNA as percent of untreated control, SNU-449 cells, single dose
[3] = Table 41, SNU-449 cells, 10,000 cells per well, free uptake, 2,000 nM modified oligonucleotide, approximately 48 hours, RTS36584, normalized to RIBOGREEN, Yap1 mRNA relative to untreated control cells
[4] = Table 42 (separate experiment), SNU-449 cells, 10,000 cells per well, free uptake, 2,000 nM modified oligonucleotide, approximately 48 hours, RTS36584, normalized to RIBOGREEN, Yap1 mRNA relative to untreated control cells
[5] = Table 52, Yap1 mRNA, modified oligonucleotides targeting SEQ ID NO: 1 and 2
[6] = Table 43 experiment, SNU-449 cells, 10,000 cells per well, free uptake, 2,000 nM, approximately 48 hours, RTS36584, Yap1 mRNA normalized to RIBOGREEN, relative to untreated control cells
[7] = Table 45, Yap1 mRNA as percent of untreated control, SNU-449 cells, single dose

In the case of “1198378 (kA*dT*dA*dT*dG*dG*dA*dA*dA*dT*dT*kG*eT*k[5mC]*eT*k[5mC]; antisense) [Compound 1198378]”, the “YAP1 (% UTC)” value [1] is reported as 39 % UTC.
With “1198889 (kT*kT*dA*dG*dA*d[5mC]*dT*dA*dA*dG*dT*kA*eA*kG*eG*kT; antisense) [Compound 1198889]” the “YAP1 (% UT)” value [2] was 27 % UT.
For “1198856 (k[5mC]*kT*dT*dA*dT*dA*dT*dG*dG*dT*dT*kT*eT*kG*eT*kG; antisense) [Compound 1198856]”, the “YAP1 (% UT)” value [2] was 20 % UT.
“1198638 (kA*kG*dA*dG*dT*dA*dT*dG*dT*dG*dG*d[5mC]*kA*eA*kT*eA; antisense) [Compound 1198638]” was tested, and the “YAP1 (% UTC)” value [3] was 18 % UTC.
With “1095379 (antisense kA*d[5mC]*dT*dG*dA*dG*dG*dT*dA*dT*dA*kA*e[5mC]*kT*eG*kG) [Compound 1095379]” the “YAP1 (% UTC)” value [1] was 52 % UTC.
In the case of “1095463 (antisense kA*k[5mC]*dT*dG*dA*dG*dG*dT*dA*dT*dA*dA*k[5mC]*eT*kG*eG) [Compound 1095463]”, the “YAP1 (% UTC)” value [4] is reported as 37 % UTC.
For “1198673 (antisense kG*kA*dT*dT*dT*dA*dG*dG*dA*dT*dG*d[5mC]*kA*eT*kG*eG) [Compound 1198673]”, the “YAP1 (% UTC)” value [3] was 10 % UTC.
In the case of “1200855 (kT*kT*kT*dA*dT*mG*dT*dA*dA*dT*dA*dT*dT*kG*k[5mC]*kA; antisense) [Compound 1200855]”, the “YAP1 (% UT)” value [5] is reported as 56 % UT.
In the case of “1200866 (kA*kG*kT*dA*dA*mG*dG*dT*dT*dT*d[5mC]*d[5mC]*d[5mC]*kA*kG*kA; antisense) [Compound 1200866]”, the “YAP1 (% UT)” value [5] is reported as 41 % UT.
In the case of “1198737 (k[5mC]*eT*kG*dA*dG*dG*dT*dA*dT*dA*dA*d[5mC]*eT*eG*kG*kG; antisense) [Compound 1198737]”, the “YAP1 (% UTC)” value [3] is reported as 24 % UTC.
With “1198256 (kG*kA*d[5mC]*dA*dA*d[5mC]*dT*d[5mC]*dT*dT*dA*eT*eA*eT*kG*kG; antisense) [Compound 1198256]” the “YAP1 (% UTC)” value [6] was 78 % UTC.
With “1198578 (antisense GCTTTGGAAGATCTGA; chemistry not fully specified) [Compound 1198578]” the “YAP1 (% UT)” value (Table 49, Yap1 mRNA level relative to untreated control, modified oligonucleotides targeting SEQ ID NO.: 1 and 2) was 18 % UT.
With “1198508 (k[5mC]*kT*dT*dA*dT*dA*dT*dG*dG*dT*dT*eT*kT*eG*kT*eG; antisense) [Compound 1198508]” the “YAP1 (% UTC)” value (Table 44 experiment, SNU-449 cells, 10,000 cells per well, free uptake, 2,000 nM, approximately 48 hours, RTS36584, Yap1 mRNA normalized to RIBOGREEN, relative to untreated control cells) was 22 % UTC.
With “1198962 (kT*kA*dA*dA*dG*dT*dG*dT*dA*dT*dG*kT*d[5mC]*kA*dG*kA; antisense) [Compound 1198962]” the “YAP1 (% UTC)” value [7] was 52 % UTC.
With “1200833 (kG*kA*kT*dT*dT*mA*dG*dG*dA*dT*dG*d[5mC]*dA*kT*kG*kG; antisense) [Compound 1200833]” the “YAP1 (% UT)” value [5] was 31 % UT.
“1198268 (kA*kA*dG*dT*dG*dT*dA*dT*dG*dT*d[5mC]*eA*eG*eA*kA*kG; antisense) [Compound 1198268]” was tested, and the “YAP1 (% UTC)” value [6] was 11 % UTC.
In the case of “1198927 (kT*kG*d[5mC]*dT*dT*dT*dG*dG*dA*dA*dG*kA*dT*k[5mC]*dT*kG; antisense) [Compound 1198927]”, the “YAP1 (% UTC)” value [7] is reported as 50 % UTC.
With “1198736 (kT*eG*kA*dG*dG*dT*dA*dT*dA*dA*d[5mC]*dT*eG*eG*kG*k[5mC]; antisense) [Compound 1198736]” the “YAP1 (% UTC)” value [3] was 20 % UTC.
With “1198296 (kT*kT*kA*dG*dA*dG*dT*dA*dT*dG*dT*dG*kG*e[5mC]*kA*eA; antisense) [Compound 1198296]” the “YAP1 (% UT)” value (Table 48, Yap1 mRNA level relative to untreated control, modified oligonucleotides targeting SEQ ID NO.: 1 and 2) was 29 % UT.
“1198233 (k[5mC]*kT*dT*dT*dG*dG*dA*dA*dG*dA*dT*e[5mC]*eT*eG*kA*kA) [Compound 1198233]” was tested, and the “YAP1 (% UTC)” value [4] was 49 % UTC.
“1200841 (kT*k[5mC]*kT*dT*dA*mU*dA*dT*dG*dG*dT*dT*dT*kT*kG*kT; antisense) [Compound 1200841]” was tested, and the “YAP1 (% UT)” value [5] was 76 % UT.
“1200821 (kT*kT*kG*dG*dA*mA*dG*dA*dT*d[5mC]*dT*dG*dA*kA*kA*k[5mC]; antisense) [Compound 1200821]” was tested, and the “YAP1 (% UT)” value [5] was 59 % UT.
With “1198242 (kA*kT*dT*dT*dA*dG*dG*dA*dT*dG*d[5mC]*eA*eT*eG*kG*kT; antisense) [Compound 1198242]” the “YAP1 (% UTC)” value [6] was 47 % UTC.
